Laboratory results published in US9421263B2, “Antimicrobial compositions containing synergistic combinations of quaternary ammonium compounds and essential oils and/or constituents thereof” (THE TRUSTEES OF COLUMBIA UNIVERSITY IN THE CITY OF NEW YORK, priority 2003, dated 2016).

Assays:
S. aureus = assay: Evaluation of rapid antimicrobial activity in presence of serum (S. aureus); assay type: cell-based; settings: for synergy in combination with farnesol, in words: Example 3, Table 3, rapid serum-based assay; for log10 reduction, With zinc salts / cfu/ml, With zinc salts / log10 reduction, Without zinc salts / cfu/ml, Without zinc salts: Table 2; for log10 reduction, With zinc salts / cfu/ml, With zinc salts: Base #1 with zinc salts; for log10 reduction, With zinc salts / cfu/ml, With zinc salts / log10 reduction, Without zinc salts / cfu/ml, Without zinc salts / cfu/ml / log10 reduction / log10 reduction, S. aureus / cfu/ml, S. aureus / Log10 reduction: serum; for log10 reduction, With zinc salts / cfu/ml, With zinc salts / log10 reduction, Without zinc salts / cfu/ml, Without zinc salts / cfu/ml / log10 reduction / log10 reduction, S. aureus / cfu/ml, S. aureus / Log10 reduction / CFU/mL: 15 seconds; for cfu/ml, With zinc salts / cfu/ml: control gel 1.4 × 10^7; for log10 reduction, Without zinc salts / cfu/ml, Without zinc salts: Base #2 without zinc salts; for cfu/ml, Without zinc salts: control gel 4.1 × 10^7; for cfu/ml / log10 reduction: Table 3, groups in gel Base #2 (% w/w); for log10 reduction, S. aureus / cfu/ml, S. aureus: Base #2; for synergy of the combination, in words: Example 1, Table 1, Base #1; for Log10 reduction / CFU/mL: Table 1, BZK 0.12%, CHG 0.05%, TC 0.3%, ZP 0.5%, F/LO/LI/CI 0.3%; for Log10 reduction: Base #1 (zinc salts), versus Control (Base); for CFU/mL: agents in alcohol based zinc gel Base #1, bovine adult serum, control 3.4 × 10^7
Description: Evaluation of Rapid Antimicrobial Activity in Presence of Serum.
To determine the efficacy of the antimicrobial composition on the skin, which may be contaminated with blood or other proteinaceous fluids containing bacteria, the antimicrobial activity was evaluated in the presence of serum as follows. Briefly, 0.5 ml of 10^8 CFU of S. aureus/ml was added to 0.5 ml of bovine adult serum in a sterile culture tube and mixed. 0.5 ml of the test formulation was added to each tube and vortexed. After 15 seconds, it was further diluted 1:100 with drug inactivating media (LTSB) and 0.5 ml was plated on a TSA plate. The plates were incubated at 37° C. for 24 hours and the colony count per ml of culture was determined.

E. coli = assay: Rapid antimicrobial activity assay in presence of serum (E. coli); assay type: cell-based
[1] = cited from earlier work
[2] = Table 4, BZK 0.12% w/w, BZT 0.18% w/w, all other EO/IC 0.5% w/w
[3] = Table 4, BZK 0.12% w/w, BZT 0.18% w/w, all other EO/IC 0.5% w/w, control 1.4 × 10^7
[4] = Table 6, Gel Base #1, ingredients % w/w, control base 3.4 × 10^7 cfu/ml
[5] = Table 7, ingredients in gram millimoles per 100 g Gel, control base 6.4 × 10^7 cfu/ml
[6] = Table 4, Base #2, BZK 0.12% w/w, BZT 0.18% w/w, all other EO/IC 0.5% w/w, 15 seconds
[7] = Table 4, Base #2, BZK 0.12% w/w, BZT 0.18% w/w, all other EO/IC 0.5% w/w, 15 seconds, control 2.6 × 10^7
[8] = Table 5, Base #2, 15 seconds, gel base 2.6 × 10^7
[9] = Example 6, Table 7, molar proportions

Compound | log10 reduction, S. aureus (S. aureus; Table 5) [log10] | cfu/ml, S. aureus (S. aureus; Table 5, gel base 1.4 × 10^7) | log10 reduction in colony count from the control (S. aureus; [4]) [log10] | log10 reduction in colony count from the control (S. aureus; [5]) [log10] | log10 reduction, E. coli (E. coli; Table 5, Base #2, 15 seconds) [log10] | cfu/ml, E. coli (E. coli; [8]) | synergy of the combination, in words (S. aureus) | Log10 reduction (S. aureus) [log10] | CFU/mL (S. aureus) | other results
CC(C)(C)CC(C)(C)c1ccc(OCCOCC[N+](C)(C)Cc2ccccc2)cc1 [BZT, benzethonium chloride] | 1.4 | 5.3 × 10^5 cfu/ml | 1.6 | 1.9 | 1.8 | 4.3 × 10^5 cfu/ml |  |  |  | synergy in combination with farnesol, in words (S. aureus): synergistic antimicrobial activity when used in combination with farnesol; log10 reduction, With zinc salts (S. aureus): 1.6 log10; cfu/ml, With zinc salts (S. aureus): 3.3 × 10^5 cfu/ml; log10 reduction, Without zinc salts (S. aureus): 1.7 log10; cfu/ml, Without zinc salts (S. aureus): 7.5 × 10^5 cfu/ml; cfu/ml (S. aureus; listed as BZT (0.06%)): 5.7 × 10^5 cfu/ml; cfu/ml (S. aureus; listed as BZT (0.12%)): 4.7 × 10^5 cfu/ml; cfu/ml (S. aureus; listed as BZT (0.18%)): 3.3 × 10^5 cfu/ml; log10 reduction (S. aureus; listed as BZT (0.06%)): 1.4 log10; log10 reduction (S. aureus; listed as BZT (0.12%)): 1.5 log10; log10 reduction (S. aureus; listed as BZT (0.18%)): 1.6 log10; log10 reduction, S. aureus (S. aureus; [2]): 1.4 log10; cfu/ml, S. aureus (S. aureus; [3]): 5.3 × 10^5 cfu/ml; log10 reduction, E. coli (E. coli; [6]): 1.8 log10; cfu/ml, E. coli (E. coli; [7]): 4.3 × 10^5 cfu/ml
N=C(NCCCCCCNC(=N)NC(=N)Nc1ccc(Cl)cc1)NC(=N)Nc1ccc(Cl)cc1.O=C(O)[C@H](O)[C@@H](O)[C@H](O)[C@H](O)CO.O=C(O)[C@H](O)[C@@H](O)[C@H](O)[C@H](O)CO [CHG, chlorhexidine gluconate] | 1.3 | 6.6 × 10^5 cfu/ml | 1.7 | 1.9 | 1.7 | 4.8 × 10^5 cfu/ml | No such synergism was observed when farnesol was combined | 1.7 | 6.6 × 10^5 CFU/mL | 
CC(C)=CCCC(C)=CC=O [CI, Citral] |  |  |  |  |  |  | synergistic antimicrobial effects when combined with BZK | 1.3 | 1.5 × 10^6 CFU/mL | 
CC(C)=CCCC(C)=CCCC(C)=CCO [F, Farnesol] | 1.5 | 4.5 × 10^5 cfu/ml | 0.6 | 1.8 | 1.8 | 4.3 × 10^5 cfu/ml | synergistic antimicrobial effects when combined with BZK | 0.6 | 8.4 × 10^6 CFU/mL | log10 reduction, With zinc salts (S. aureus): 1.5 log10; cfu/ml, With zinc salts (S. aureus): 4.5 × 10^5 cfu/ml; log10 reduction, Without zinc salts (S. aureus): 1.7 log10; cfu/ml, Without zinc salts (S. aureus): 8.9 × 10^5 cfu/ml; log10 reduction (S. aureus): 1.5 log10; cfu/ml (S. aureus; listed as Farnesol (0.3%)): 4.6 × 10^5 cfu/ml; cfu/ml (S. aureus; listed as Farnesol (0.5%)): 4.5 × 10^5 cfu/ml; log10 reduction, S. aureus (S. aureus; [2]): 1.5 log10; cfu/ml, S. aureus (S. aureus; [3]): 4.5 × 10^5 cfu/ml; log10 reduction, E. coli (E. coli; [6]): 1.8 log10; cfu/ml, E. coli (E. coli; [7]): 4.3 × 10^5 cfu/ml
C=CC(C)(O)CCC=C(C)C (stereo not shown) [LI, Linalool] |  |  |  |  |  |  | synergistic antimicrobial effects when combined with BZK | 1.3 | 1.5 × 10^6 CFU/mL | 
Oc1cc(Cl)ccc1Oc1ccc(Cl)cc1Cl [TC, triclosan] |  |  | 1.3 | 1.3 |  |  | No such synergism was observed when farnesol was combined | 1.3 | 1.5 × 10^6 CFU/mL | whether farnesol shows synergy with or enhances the antimicrobial agent, in words (S. aureus; Example 6, Table 6, % w/w): does not show any synergy; whether farnesol shows synergy with or enhances the antimicrobial agent, in words (S. aureus; [9]): but not with triclosan
Polyhexamethylenebiguanide hydrochloride [PHMB] | 2.9 | 4.3 × 10^4 cfu/ml | 2.9 | 2.1 | 1.6 | 6.0 × 10^5 cfu/ml |  |  |  | effect of added biguanide on the combination of BZT and farnesol, in words (S. aureus; Example 5, Table 5 (S. aureus and E. coli)): appears to enhance the activity of the combination of BZT and farnesol; whether farnesol shows synergy with or enhances the antimicrobial agent, in words (S. aureus; Example 6, Table 6, % w/w): enhances the activity; whether farnesol shows synergy with or enhances the antimicrobial agent, in words (S. aureus; [9]): appears to enhance the activity of farnesol
benzalkonium chloride [BZK] |  |  | 1.8 |  |  |  | significant synergistic activity in combination with EOs and ICs | 1.8 | 5.4 × 10^5 CFU/mL | synergy in combination with farnesol, in words (S. aureus): synergistic antimicrobial activity when used in combination with farnesol; whether farnesol shows synergy with or enhances the antimicrobial agent, in words (S. aureus; Example 6, Table 6, % w/w): shows synergy; cfu/ml (S. aureus; listed as BZK (0.06%)): 1.8 × 10^6 cfu/ml; cfu/ml (S. aureus; listed as BZK (0.12%)): 5.4 × 10^5 cfu/ml; log10 reduction (S. aureus; listed as BZK (0.06%)): 0.9 log10; log10 reduction (S. aureus; listed as BZK (0.12%)): 1.4 log10; log10 reduction, S. aureus (S. aureus; [2]): 1.6 log10; cfu/ml, S. aureus (S. aureus; [3]): 3.3 × 10^5 cfu/ml; log10 reduction, E. coli (E. coli; [6]): 1.6 log10; cfu/ml, E. coli (E. coli; [7]): 5.8 × 10^5 cfu/ml
zinc glycerate |  |  |  |  |  |  |  |  |  | water solubility, in words [1]: moderately water soluble
zinc picolinate |  |  |  |  |  |  |  |  |  | water solubility, in words [1]: moderately water soluble
zinc pyrithione [ZP] |  |  |  |  |  |  | No such synergism was observed when farnesol was combined | 1.4 | 1.4 × 10^6 CFU/mL | 
